The source of these data is PMC6268379, “Antifungal Activity of Homoaconitate and Homoisocitrate Analogs” (Molecules, 2012).

A value given as a limit tells only on which side of the number the result lay.

The term IC50 denotes the concentration that gives 50% inhibition. In general, MIC refers to the lowest concentration found to suppress growth.

Assay [1] addresses recombinant homoisocitrate dehydrogenase (HIcDH) (Candida albicans, UniProt Q5A9D9). Briefly: Homoisocitrate dehydrogenase activity, NADH absorption at 340 nm. The format is biochemical. To be noted: recombinant C. albicans His-tagged HIcDH, inhibitor 0–10 mM, mean of three determinations ± SD. The method, then:
(§1) Recombinant C. albicans homoaconitase (HA) and homoisocitrate dehydrogenase (HIcDH) containing oligoHis N-terminal tags were constructed and purified to near homogeneity as described earlier.
Reaction catalyzed by homoisocitrate dehydrogenase (HIcDH) was monitored by measuring the NADH absorption at 340 nm. The standard assay mixture contained 10 mM KCl, 5.0 mM MgCl2, 5 mM NAD^+ and 0.1 mM (2R,3S)-homoisocitrate in 50 mM Hepes-NaOH (pH 7.8) buffer. The reaction mixture with all required components except for the enzyme was preincubated for 3 min and the reaction was started by an addition of the recombinant His6-HIcDH (50 μg). The formation of NADH was measured for 30 s at 20 °C to determine initial reaction velocity. The initial rates were determined using a linear portion of the reaction progress curve.
(§2) The effects of novel compounds on the HA and HIcDH activity was determined by measuring the enzyme activity in standard assay mixtures containing various concentration of an inhibitor (0–10 mM). Inhibitory potential was expressed as IC50 values, i.e., concentrations causing 50% inhibition of enzyme activity in relation to control. All determinations were performed in triplicate.

Assay [2] has as its system Candida krusei DSM 6128. Nature of the assay: Antifungal in vitro activity, microplate serial dilution (modified CLSI M27-A3). To be noted: Pichia kudriavzevii, DSM6128, 24 h, pH 7, read-out: MIC C. krusei. The format is cell-based.
The test system of assay [3] is six yeast strains. Briefly: In vitro antifungal activity against six yeast strains. The format is cell-based. To be noted: salts, six yeast strains, stated in words.
In assay [4] the test system is Candida tropicalis KKP 334. Nature of the assay: Antifungal in vitro activity, microplate serial dilution (modified CLSI M27-A3). The format is cell-based. Particulars: KKP334, 24 h, pH 7, read-out: MIC C. tropicalis.
For assay [5], the target named is T1, recombinant homoaconitase (HA) (Candida albicans, UniProt Q5A644).
T1 construct: made in house
T1 sequence (Q5A644 1-684): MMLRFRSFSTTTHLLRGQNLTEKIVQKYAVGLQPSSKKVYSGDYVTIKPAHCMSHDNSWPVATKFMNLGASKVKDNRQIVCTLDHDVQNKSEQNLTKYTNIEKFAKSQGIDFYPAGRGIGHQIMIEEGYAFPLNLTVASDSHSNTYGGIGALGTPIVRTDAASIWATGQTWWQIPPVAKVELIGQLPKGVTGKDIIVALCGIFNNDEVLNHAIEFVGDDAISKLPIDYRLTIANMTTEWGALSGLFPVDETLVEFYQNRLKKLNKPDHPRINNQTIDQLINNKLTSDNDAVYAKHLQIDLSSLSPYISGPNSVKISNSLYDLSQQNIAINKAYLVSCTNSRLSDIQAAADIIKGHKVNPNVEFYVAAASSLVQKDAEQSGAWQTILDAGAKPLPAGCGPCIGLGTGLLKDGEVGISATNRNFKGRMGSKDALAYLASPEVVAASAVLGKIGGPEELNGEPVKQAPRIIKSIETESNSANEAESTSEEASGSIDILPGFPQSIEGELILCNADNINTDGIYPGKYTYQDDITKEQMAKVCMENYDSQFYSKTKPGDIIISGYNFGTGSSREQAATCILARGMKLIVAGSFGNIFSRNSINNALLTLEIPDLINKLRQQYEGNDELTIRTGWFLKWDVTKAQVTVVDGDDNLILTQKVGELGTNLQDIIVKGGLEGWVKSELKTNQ
Nature of the assay: Homoaconitase activity, coupled reaction with HIcDH, NADH at 340 nm. The format is biochemical. As to the method: as §1
Activity of homoaconitase (HA) was measured by a coupled reaction with HIcDH by monitoring the reduction of NAD^+ to NADH at 340 nm. Reaction mixtures containing 50 mM Tris-HCl (pH 8.5), 50 mM KCl, 5 mM MgCl2, 20 mM dithiothreitol, 1 mM NAD^+ and 30 μg/mL of His6-HIcDH in a total volume of 0.9 mL were degassed under argon for 10 min, after which 0.05 mL of His6-HAC solution was added to a final concentration of 10 μg/mL. The reaction was initiated with addition of 0.05 mL of 50 mM (R)-homocitrate. The formation of NADH was measured for 30 s at 20 °C to determine initial reaction velocity. The initial rates were determined using a linear portion of the reaction progress curve.
as §2

The test system of assay [6] is Candida glabrata DSM 11226. Briefly: Antifungal in vitro activity, microplate serial dilution (modified CLSI M27-A3). The format is cell-based. To be noted: Nakaseomyces glabratus, DSM11226, 24 h, pH 7, read-out: MIC C. glabrata.
The subject of assay [7] is Candida albicans ATCC 10231. The description is as above. The format is cell-based. Particulars: ATCC10231, 24 h, pH 7, read-out: MIC C. albicans.
Assay [8] deals with Saccharomyces cerevisiae ATCC 9763. The assay is described as above. The format is cell-based. To be noted: ATCC9763, 24 h, pH 7, read-out: MIC S. cerevisiae.
Assay [9] relates to Candida lusitaniae DSM 70102. Described as above. The format is cell-based. Particulars: Clavispora lusitaniae, DSM70102, 24 h, pH 7, read-out: MIC C. lusitaniae.

Chain of recombinant homoisocitrate dehydrogenase (HIcDH) (Q5A9D9 entry or part of it): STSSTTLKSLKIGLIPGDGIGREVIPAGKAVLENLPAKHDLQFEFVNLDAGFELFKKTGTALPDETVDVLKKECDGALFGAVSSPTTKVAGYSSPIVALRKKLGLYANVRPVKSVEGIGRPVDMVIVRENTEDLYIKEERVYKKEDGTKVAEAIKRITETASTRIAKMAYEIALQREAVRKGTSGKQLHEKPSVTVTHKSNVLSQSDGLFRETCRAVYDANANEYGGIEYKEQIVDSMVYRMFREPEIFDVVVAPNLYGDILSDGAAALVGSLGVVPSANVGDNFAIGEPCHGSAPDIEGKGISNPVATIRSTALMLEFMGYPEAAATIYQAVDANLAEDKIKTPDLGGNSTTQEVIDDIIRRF

On to `O=C([O-])CC[C@@H](C(=O)[O-])[C@@H](F)C(=O)[O-].[K+].[K+].[K+]` [Compound 10, tripotassium (1R,2S)-1-fluorobutane-1,2,4-tricarboxylate], for which the IC50 was 3.22 ± 0.55 mM in assay [1] and > 10 mM in assay [5]. The MIC in [2], in assay [4], in [6], in [7], in assay [8] and in assay [9] was > 512 mg/L in each case. In addition, in assay [3], the antifungal activity entry is reported as “None”.
